Data on 1 compound can be found in patent US20190192521A1, “Methods of Treating Arid1A-Mutated Cancers With HDAC6 Inhibitors and EZH2 Inhibitors” (The Wistar Institute of Anatomy and Biology, priority 2016, published 2019).

Entries after “also recorded” stand apart in the source; their conditions may differ.

For data set [1], the system named is p53K120Ac in ARID1A-mutated TOV21G cells. The experiment in a line: mitochondrial localization of p53K120Ac (immunofluorescence, cellular fractionation). Type of data set: cell-based, human. The settings on record: 1.25 μM. The source says: FIG. 42 illustrates that apoptosis induced by HDAC6 inhibition in ARD1A-mutated cells correlates with mitochondrial localization of p53K120Ac and a decrease in mitochondrial membrane potential. […] Images were captured using confocal microscopy.
Mean of three independent experiments with S.E.M.
Expression of p53K120Ac, mitochondrial marker TOM20, and total p53 in the indicated fractions was examined by immunoblot. GAPDH expression was used as a loading control.
Immunofluorescence and immunohistochemical staining was performed as follows. Immunofluorescence was performed after 48 hours as indicated by fixing samples in 4% paraformaldehyde and permeabilizing with 0.5% Triton-X. Samples were incubated with primary antibodies for 2 hours at room temperature, highly cross absorbed secondary antibodies (Invitrogen) for 1 hour at room temperature and mounted with prolong anti-fade reagent (Invitrogen). Immuno-stained cells were imaged using a Leica Confocal microscope. […] Bitler et al. Nat. Med. 2015, 21, 231-238; Bitler et al. Cancer Research 2011, 71, 6184-6194. Expression of the stained markers was scored using a histologic score (H score) as previously described. McCarty, Jr. et al. Cancer research 1986, 46, 4244s-4248s.
Mitochondria were isolated using the Mitochondria Isolation Kit (Thermo Fisher Scientific). […]

In data set [2] the test system is ARID1A wild-type RMG1 cells. In words: apoptosis (Annexin V, cleaved caspase 3, cleaved PARP p85) in ARID1A wild-type cells. In kind it is cell-based, human. The settings on record: 1.25 μM. Here is the method: Expression of apoptotic markers cleaved caspase 3 and cleaved PARP p85 by immunoblot. GAPDH expression was used as a loading control.
(§1) For immunoblotting, protein was isolated as described in Bitler et al. Nat. Med. 2015, 21, 231-238. Briefly, protein was extracted with RIPA buffer (150 mM NaCl, 1% NP40, 0.5% sodium deoxycholate, 0.1% SDS, 50 mM Tris pH 8.0, and 1 mM PMSF). Protein was separated on a SDS-PAGE and transferred to PVDF membrane. For immunoblot of p53 post-translation modifications, cells were treated with a proteasome inhibitor MG132 (10 μM) to stabilize p53 protein.
Annexin V and mitochondria membrane potentials were measured as follows. Phosphatidylserine externalization was detected using an Annexin V staining kit (Life Technologies) following the manufacturer's instructions. To measure change in mitochondria membrane potential cells were treated with 200 nM of tetramethylrhodamine, ethyl ester (TMRE; Abcam) for 15 min at 37° C. Annexin V and TMRE-positive cells were detected using the LSR18 and analyzed with the FlowJo software module.

Data set [3] has as its system ARID1A-mutated TOV21G cells. The experiment in a line: apoptosis and growth inhibition with or without p53 knockdown, TOV21G. In kind it is cell-based, human. Here is the method:
Growth inhibition was calculated based on integrated density as measured in NIH ImageJ, and values were normalized to vehicle control. Data is representative of 3 independent experiments. Error bars represent S.E.M. The p-value was calculated via two-tailed t-test.
FIG. 91 illustrates dose responsive curves of the indicated cells treated with the HDAC6 inhibitor ACY1215; ARID1A wildtype RMG1 and OVCA429 cells were used as controls for comparison; n=4 independent experiments; error bars represent S.E.M. P-value calculated via two-tailed t-test.
FIG. 92 illustrates ARID1A-mutated TOV21G with or without p53 knockdown treated with ACY1215 (1.25 μM) or DMSO controls for 48 hours; percent apoptosis was quantified by FACS analysis based on Annexin V staining; n=3 independent experiments.
FIG. 97 illustrates ARID1A-mutated TOV21G cells with or without endogenous p53 knockdown by a shp53 that targets the 3′ UTR […] region of the human TP53 gene together with a lentivirus encoding a control, wildtype p53 or a p53K12OR mutant—the percentage of surviving cells of the indicated cells treated with ACY1215 was determined by colony formation assay; n=4 independent experiments.
Annexin V and mitochondria membrane potentials were measured as follows. Phosphatidylserine externalization was detected using an Annexin V staining kit (Life Technologies) following the manufacturer's instructions. […]

Data set [4] relates to Arid1a−/−/Pik3caH1047R clear cell ovarian tumours. The experiment in a line: Arid1a−/−/Pik3caH1047R genetic clear cell ovarian tumour mouse model. Type of data set: in vivo, mice. As to conditions: 50 mg/kg, 21 days. The source says: Arid1a−/−/Pik3caH1047R genetic clear cell ovarian tumour mouse model. All experiments were approved by IACUC. Transgenic mice with latent mutations in Arid1a and Pik3ca were generated by crossing Arid1aflox/floxmice (kindly provided by Dr. Wang, U. Michigan and crossed onto a C57BL/6J background for 9 generations) with R26-Pik3caH1047R mice carrying inducible Pik3ca mutations (Jackson Laboratory, Jax #016977). Gao et al, 2008, Proc Natl Acad Sci USA 105, 6656-6661. Administration of intrabursal adeno-Cre, performed as previously reported, Scarlett et al. 2012, J Exp Med 209, 495-506, induce ovarian clear cell carcinoma in ˜45 days, which is similar to a previous report. All mice were maintained in specific pathogen-free barrier facilities. To induce tumorigenesis, 6-10 weeks old Pik3caH1047R/Arid1aflox/flox female mice were intrabursally injected adenovirus-Cre as previously described. Mice were randomized and treated with ACY1215 (50 mg/kg) or vehicle control for 21 days as previously published. Following treatment mice were sacrificed and the reproductive tracts were removed. The changes in volumes of tumours formed on the injected ovary were calculated against the contrary side non-injected ovary from the same mice.

For data set [5] the following is noted: clinical trials for hematopoietic malignancies; Santo et al. Blood 2012; cited from earlier work.
Data set [6] relates to p53 acetylation (lysine 120, 373, 382) in ARID1A-mutated TOV21G cells. The experiment in a line: immunoblot of p53 acetylation, TOV21G. Type of data set: cell-based, human. The settings on record: 1.25 μM. Here is the method: Expression of the indicated proteins was determined by immunoblot. GAPDH expression was used as a loading control.
as §1
For orientation: A western blot detects proteins with antibodies after separation by electrophoresis.

As for `O=C(CCCCCCNC(=O)c1cnc(N(c2ccccc2)c2ccccc2)nc1)NO` [rocilinostat, 2-(diphenylamino)-N-(7-(hydroxyamino)-7-oxoheptyl)pyrimidine-5-carboxamide], in data set [1] (cellular fractionation), the “p53K120Ac in the mitochondrial fraction” value was “increase in p53K120Ac in the mitochondrial fraction”. Also, in data set [1] (immunofluorescence), the “co-localization of p53K120Ac and mitochondrial marker TOM20” value is listed as “significant increase in co-localization”. In addition, the “apoptosis in ARID1A wild type cells” value in data set [2] was “did not induce a significant increase in apoptosis”. Also, the “markers of apoptosis in ARID1A wild-type cells with ARID1A knockdown” value in data set [2] (shARID1A) is on record as “significantly increased markers of apoptosis”. Also, in data set [3], the “effect of p53 knockdown on apoptosis and growth inhibition induced by the compound” value is “significantly impaired the apoptosis and growth inhibition”. Moreover, the “rescue of p53 knockdown-mediated impairment of compound-induced growth inhibition” value in data set [3] (wildtype p53 or p53K120R) is “wildtype p53 but not the p53K120R mutant rescued”. Moreover, in data set [4], the tumour growth result was “significantly suppressed the tumour growth”. In addition, the “tolerability in clinical studies” value in data set [5] is “well-tolerated without a dose-limiting toxicity; also recorded: well-tolerated and show minimal toxicity”. Further, in data set [6], the “acetylation status of lysine 373 or 382 residue of p53” value is “unchanged” and the p53K120Ac level entry is listed as “upregulated”.
